The nature of series [1]: In vitro cytotoxicity, MTT cell viability assay in HepG2 cells. It counts as cell-based. To be noted: human, Cytotoxicity CC50. Put shortly: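 Parental HepG2 cells in EMEM + 10% FBS were exposed to compounds (8 half-log dilutions, 30 μM to 1.0 nM) for 7 days at 37 °C, 5% CO2. MTT was then added for 3-4 h, formazan dissolved in DMSO and absorbance read at 492 nm; CC50 came from 4-parameter fits against vehicle controls.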

Series [2] relates to HBV replication in HepAD38 cells. Nature of the series: Anti-HBV activity in HepAD38 cells, extracellular HBV DNA by QPCR. The series is classed as cell-based, HBV (genotype D, serotype ayw). To be noted: Hepatitis B virus, HePAD38, 168 h, read-out: Anti-HBV EC50, HepAD38 cells, extracellular HBV DNA by QPCR, 7 days of incubation. The essentials:
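HepAD38 cells (HepG2 with tet-repressible HBV genotype D genome) seeded overnight, tetracycline removed, then treated 7 days with compounds (half-log dilutions, 30 μM–10 nM; 1:200 from DMSO). Supernatant HBV DNA quantified by QPCR against standard curve; % inhibition vs vehicle, EC50 by 4-parameter fit.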

Bounds are passed on as bounds.

As usually defined, the CC50 is the concentration at which the toxic effect on the cells reaches its halfway point. Low readings indicate harm at low concentration, high ones better tolerance by the cells. What is called EC50 is the concentration giving half of the maximal effect. Regarding `Cc1cc(NC(=O)c2ccc(F)c(C(Cl)(Cl)C(=O)N3CC=C(B(O)O)CC3)c2)ccc1F` [Example 151, (1-(2,2-dichloro-2-(2-fluoro-5-((4-fluoro-3-methylphenyl)carbamoyl)phenyl)acetyl)-1,2,3,6-tetrahydropyridin-4-yl)boronic acid], the CC50 at 7 days in series [1] was more than 30 µM. Besides, in series [2], the EC50 was less than 5 µM.
The corresponding values for `Cc1cc(NC(=O)c2ccc(F)c(C(F)(F)C(=O)N3[C@H]4CC[C@@H]3c3cn[nH]c3C4)c2)ccc1F` [Example 265, 3-(1,1-difluoro-2-((4R,7S)-1,4,5,6,7,8-hexahydro-4,7-epiminocyclohepta[c]pyrazol-9-yl)-2-oxoethyl)-4-fluoro-N-(4-fluoro-3-methylphenyl)benzamide] are 5 to 30 µM and less than 5 µM.
As for `O=C(Nc1cc(F)c(F)c(F)c1)c1ccc(Cl)c(C(F)(F)C(=O)N2CCC(O)CC2)c1` [Example 34, 4-chloro-3-(1,1-difluoro-2-(4-hydroxypiperidin-1-yl)-2-oxoethyl)-N-(3,4,5-trifluorophenyl)benzamide], in series [1], the cytotoxic concentration (CC50) at 7 days was 5 to 30 µM. Further, the EC50 in series [2] is less than 5 µM.
In series [1], `Cc1cc(NC(=O)c2ccc(F)c(C(F)(F)C(=O)NC34CCC(N)(CC3)C4)c2)ccc1F` [Example 253, 3-(2-((4-aminobicyclo[2.2.1]heptan-1-yl)amino)-1,1-difluoro-2-oxoethyl)-4-fluoro-N-(4-fluoro-3-methylphenyl)benzamide] yielded a CC50 at 7 days of more than 30 µM. In addition, in series [2], the EC50 is less than 5 µM.
In turn, `Cc1cc(NC(=O)c2ccc(F)c(C(F)(F)C(=O)N3[C@@H]4COC[C@H]3CC(O)C4)c2)ccc1F` (stereo partly drawn) [Example 203, 3-(1,1-difluoro-2-((1R,5S)-7-hydroxy-3-oxa-9-azabicyclo[3.3.1]nonan-9-yl)-2-oxoethyl)-4-fluoro-N-(4-fluoro-3-methylphenyl)benzamide] showed a CC50 at 7 days in series [1] of 5 to 30 µM. The half-maximal effective concentration (EC50) in series [2] was less than 5 µM.
The corresponding values for `O=C(Nc1ccc(F)c(Cl)c1)c1ccc(F)c(C(F)(F)C(=O)N2[C@@H]3CC[C@H]2C[C@H](O)C3)c1` [Example 171, N-(3-chloro-4-fluorophenyl)-3-(1,1-difluoro-2-((1R,3s,5S)-3-hydroxy-8-azabicyclo[3.2.1]octan-8-yl)-2-oxoethyl)-4-fluorobenzamide] are 5 to 30 µM and less than 5 µM.
The like results for `Cc1cc(NC(=O)c2ccc(F)c(C(F)(F)C(=O)N3CC(F)(F)CC3C(=O)O)c2)ccc1F` (stereo not shown) [Example 161, 1-(2,2-difluoro-2-(2-fluoro-5-((4-fluoro-3-methylphenyl)carbamoyl)phenyl)acetyl)-4,4-difluoropyrrolidine-2-carboxylic acid] were, in that order, more than 30 µM and 5 to 30 µM.
The like results for `O=C(Nc1ccc(F)c(F)c1)c1ccc(F)c(C(F)(F)C(=O)NCC2COCCO2)c1` (stereo not shown) [Example 6, 3-(2-(((1,4-dioxan-2-yl)methyl)amino)-1,1-difluoro-2-oxoethyl)-N-(3,4-difluorophenyl)-4-fluorobenzamide] were, in that order, 5 to 30 µM and 5 to 30 µM.
Turning to `Cc1cc(NC(=O)c2cc(Br)c(C(F)(F)C(=O)N3CCC(O)CC3)n2C)ccc1F` [Example 98, 4-bromo-5-(1,1-difluoro-2-(4-hydroxypiperidin-1-yl)-2-oxoethyl)-N-(4-fluoro-3-methylphenyl)-1-methyl-1H-pyrrole-2-carboxamide], in series [1], the CC50 at 7 days was more than 30 µM. For the same compound, the EC50 in series [2] was more than 30 µM.
As for `O=C(Nc1ccc(F)c(F)c1)c1ccc(F)c(C(F)(F)C(=O)NC2CCCCC2)c1` [Example 8, 3-(2-(cyclohexylamino)-1,1-difluoro-2-oxoethyl)-N-(3,4-difluorophenyl)-4-fluorobenzamide], the CC50 at 7 days in series [1] lay in the range of 5 to 30 µM. Besides, the EC50 in series [2] lay within 5 to 30 µM.
Compound `CC(C)NC(=O)C(F)(F)c1cc(C(=O)Nc2ccc(F)c(F)c2)ccc1F` [Example 7, 3-(1,1-difluoro-2-(isopropylamino)-2-oxoethyl)-N-(3,4-difluorophenyl)-4-fluorobenzamide] showed a CC50 at 7 days in series [1] of 5 to 30 µM. In addition, the EC50 in series [2] was 5 to 30 µM.
Compound `Cc1cc(NC(=O)c2ccn(C)c2C(F)(F)C(=O)NC2CCC(O)CC2)ccc1F` (stereo not shown) [Example 126, 2-(1,1-difluoro-2-(((1s,4s)-4-hydroxycyclohexyl)amino)-2-oxoethyl)-N-(4-fluoro-3-methylphenyl)-1-methyl-1H-pyrrole-3-carboxamide] had a CC50 at 7 days in series [1] of more than 30 µM. Also, the EC50 in series [2] fell in the range of 5 to 30 µM.
In series [1], `N#Cc1cc(NC(=O)c2ccc(F)c(C(F)(F)C(=O)N3CCC(O)CC3)c2)ccc1F` [Example 88, N-(3-cyano-4-fluorophenyl)-3-(1,1-difluoro-2-(4-hydroxypiperidin-1-yl)-2-oxoethyl)-4-fluorobenzamide] came in with a CC50 at 7 days of more than 30 µM. In addition, the EC50 in series [2] is less than 5 µM.
Take `Cc1cc(NC(=O)c2ccc(F)c(C(F)(F)C(=O)N3CCC(N)C(F)(F)C3)c2)ccc1F` (stereo not shown) [Example 334, 3-(2-(4-amino-3,3-difluoropiperidin-1-yl)-1,1-difluoro-2-oxoethyl)-4-fluoro-N-(4-fluoro-3-methylphenyl)benzamide]: the CC50 at 7 days in series [1] was 5 to 30 µM. For the same compound, in series [2], the EC50 was less than 5 µM.
The corresponding values for `Cc1cc(NC(=O)c2ccc(C(F)(F)C(=O)NC(C)(C)C)s2)ccc1F` [Example 81, 5-(2-(tert-butylamino)-1,1-difluoro-2-oxoethyl)-N-(4-fluoro-3-methylphenyl)thiophene-2-carboxamide] are more than 30 µM and 5 to 30 µM.
Regarding `O=C(Nc1ccc(F)c(Cl)c1)c1ccc(F)c(C(F)(F)C(=O)N2CCC(O)(CO)CC2)c1` [Example 172, N-(3-chloro-4-fluorophenyl)-3-(1,1-difluoro-2-(4-hydroxy-4-(hydroxymethyl)piperidin-1-yl)-2-oxoethyl)-4-fluorobenzamide], in series [1], the CC50 at 7 days lay within 5 to 30 µM. In addition, the EC50 in series [2] is less than 5 µM.
The like results for `Cc1cc(NC(=O)c2ccc(F)c(C(F)(F)C(=O)N3C4CCCC3c3sc(N)nc3C4)c2)ccc1F` (stereo not shown) [Example 342, 3-(2-(2-amino-4,5,6,7,8,9-hexahydro-5,9-epiminocycloocta[d]thiazol-10-yl)-1,1-difluoro-2-oxoethyl)-4-fluoro-N-(4-fluoro-3-methylphenyl)benzamide] were, in that order, more than 30 µM and less than 5 µM.
In the case of `COc1ccc(C(F)(F)C(=O)N2CCC(O)CC2)cc1C(=O)Nc1ccc(F)c(C)c1` [Example 91, 5-(1,1-difluoro-2-(4-hydroxypiperidin-1-yl)-2-oxoethyl)-N-(4-fluoro-3-methylphenyl)-2-methoxybenzamide], the CC50 at 7 days in series [1] was more than 30 µM. Besides, the EC50 in series [2] was more than 30 µM.
`O=C(Nc1ccc(F)c(F)c1)c1ccc(F)c(C(F)(F)C(=O)NC[C@@H](O)CO)c1` [Example 53, (R)—N-(3,4-difluorophenyl)-3-(2-((2,3-dihydroxypropyl)amino)-1,1-difluoro-2-oxoethyl)-4-fluorobenzamide] gave a CC50 at 7 days in series [1] of more than 30 µM. In addition, in series [2], the EC50 is less than 5 µM.
The corresponding values for `Cc1cc(NC(=O)c2ccc(F)c(C(F)(F)C(=O)N3CCC(O)C(F)(F)C3)c2)cc(F)c1F` (stereo not shown) [Example 250, 3-(2-(3,3-difluoro-4-hydroxypiperidin-1-yl)-1,1-difluoro-2-oxoethyl)-N-(3,4-difluoro-5-methylphenyl)-4-fluorobenzamide] are 5 to 30 µM and less than 5 µM.
In series [1], `C=Cc1ccc(C(=O)Nc2ccc(F)c(C)c2)cc1C(F)(F)C(=O)N1CCC(O)CC1` [Example 115, 3-(1,1-difluoro-2-(4-hydroxypiperidin-1-yl)-2-oxoethyl)-N-(4-fluoro-3-methylphenyl)-4-vinylbenzamide] came in with a CC50 at 7 days of more than 30 µM. In series [2], the concentration for a half-maximal effect (EC50) was less than 5 µM.
The corresponding values for `CC(C)n1cc(NC(=O)c2ccc(F)c(C(F)(F)C(=O)N3CCC(O)C(F)(F)C3)c2)cn1` (stereo not shown) [Example 183, 3-(2-(3,3-difluoro-4-hydroxypiperidin-1-yl)-1,1-difluoro-2-oxoethyl)-4-fluoro-N-(1-isopropyl-1H-pyrazol-4-yl)benzamide] are more than 30 µM and 5 to 30 µM.
The like results for `Cc1cc(NC(=O)c2ccc(F)c(C(F)(F)C(=O)Nc3nc4c(s3)CCNC4)c2)ccc1F` [Example 309, 3-(1,1-difluoro-2-oxo-2-((4,5,6,7-tetrahydrothiazolo[4,5-c]pyridin-2-yl)amino)ethyl)-4-fluoro-N-(4-fluoro-3-methylphenyl)benzamide] were, in that order, 5 to 30 µM and 5 to 30 µM.
The like results for `O=C(Nc1ccc(F)c(F)c1)c1ccc(F)c(C(F)(F)C(=O)NC2CCC(O)CC2)c1` (stereo not shown) [Example 26, 3-(1,1-difluoro-2-(((1r,4r)-4-hydroxycyclohexyl)amino)-2-oxoethyl)-N-(3,4-difluorophenyl)-4-fluorobenzamide] were, in that order, 5 to 30 µM and less than 5 µM.
In series [1], `Cc1cc(NC(=O)c2cc(C(F)(F)C(=O)NC(C)(C)C)cs2)ccc1F` [Example 157, 4-(2-(tert-butylamino)-1,1-difluoro-2-oxoethyl)-N-(4-fluoro-3-methylphenyl)thiophene-2-carboxamide] registered a CC50 at 7 days of 5 to 30 µM. For the same compound, the EC50 in series [2] lay within 5 to 30 µM.
For the compound `O=C(Nc1ccc(F)c(F)c1)c1ccc(F)c(C(F)(F)C(=O)N(CCO)CCO)c1` [Example 16, 3-(2-(bis(2-hydroxyethyl)amino)-1,1-difluoro-2-oxoethyl)-N-(3,4-difluorophenyl)-4-fluorobenzamide], the CC50 at 7 days in series [1] is more than 30 µM. Further, the EC50 in series [2] was 5 to 30 µM.
